Numbers after ± are expanded uncertainties.
Assay: molar heat capacity at constant pressure; wn = mass fraction of the nth substance listed
Conditions: Small (less than 1 g) adiabatic calorimetry

CCCCn1cc[n+](C)c1.[Br-] [1-butyl-3-methylimidazolium bromide] + O
Crystal
Conditions | molar heat capacity at constant pressure [J/K/mol]
257.1 K, w2 = 0.0169 | 211.52 ± 1.1
257.12 K, w2 = 0.00482 | 207.32 ± 1
257.24 K, w2 = 0.0495 | 210.08 ± 1
257.33 K, w2 = 0.0051 | 208.6 ± 1
257.89 K, w2 = 0.00482 | 208.45 ± 1
258.27 K, w2 = 0.0051 | 209.35 ± 1
258.32 K, w2 = 0.00482 | 208.23 ± 1
258.68 K, w2 = 0.00482 | 208.41 ± 1
258.78 K, w2 = 0.0169 | 213.4 ± 1.1
259.16 K, w2 = 0.0169 | 213.8 ± 1.1
259.51 K, w2 = 0.0495 | 213.48 ± 1.1
259.61 K, w2 = 0.0051 | 210.47 ± 1
259.93 K, w2 = 0.0051 | 210.82 ± 1
259.98 K, w2 = 0.00482 | 210.49 ± 1
260.24 K, w2 = 0.00482 | 209.97 ± 1
260.65 K, w2 = 0.00482 | 210.2 ± 1
260.87 K, w2 = 0.0169 | 215.76 ± 1.1
260.94 K, w2 = 0.0051 | 211.8 ± 1.1
261.22 K, w2 = 0.0169 | 216.33 ± 1.1
261.77 K, w2 = 0.0495 | 217.08 ± 1.1
262.06 K, w2 = 0.00482 | 211.93 ± 1
262.28 K, w2 = 0.0051 | 212.88 ± 1.1
262.52 K, w2 = 0.0051 | 213.06 ± 1.1
262.95 K, w2 = 0.0169 | 218.39 ± 1.1
262.98 K, w2 = 0.00482 | 212.09 ± 1
263.28 K, w2 = 0.0169 | 218.78 ± 1.1
263.78 K, w2 = 0.0051 | 214.35 ± 1.1
264.01 K, w2 = 0.0495 | 220.81 ± 1.1
264.14 K, w2 = 0.00482 | 213.82 ± 1.1
265.04 K, w2 = 0.0169 | 221.03 ± 1.1
265.12 K, w2 = 0.0051 | 215.36 ± 1.1
265.24 K, w2 = 0.0051 | 215.65 ± 1.1
265.32 K, w2 = 0.00482 | 214.05 ± 1.1
265.34 K, w2 = 0.0169 | 221.47 ± 1.1
266.23 K, w2 = 0.0495 | 224.56 ± 1.1
266.24 K, w2 = 0.00482 | 216.31 ± 1.1
266.58 K, w2 = 0.0051 | 216.86 ± 1.1
267.13 K, w2 = 0.0169 | 223.7 ± 1.1
267.4 K, w2 = 0.0169 | 224.14 ± 1.1
267.66 K, w2 = 0.00482 | 216.04 ± 1.1
267.71 K, w2 = 0.0051 | 217.69 ± 1.1
268.43 K, w2 = 0.0495 | 228.48 ± 1.1
269.22 K, w2 = 0.0169 | 226.58 ± 1.1
269.45 K, w2 = 0.0169 | 226.98 ± 1.1
270 K, w2 = 0.00482 | 218.06 ± 1.1
270.31 K, w2 = 0.0051 | 220.13 ± 1.1
270.61 K, w2 = 0.0495 | 232.41 ± 1.1
271.3 K, w2 = 0.0169 | 229.49 ± 1.1
271.51 K, w2 = 0.0169 | 229.82 ± 1.1
272.34 K, w2 = 0.00482 | 220.16 ± 1.1
272.91 K, w2 = 0.0051 | 222.62 ± 1.1
273.18 K, w2 = 0.0495 | 242 ± 1.2
273.57 K, w2 = 0.0169 | 232.77 ± 1.1
275.36 K, w2 = 0.00482 | 223.11 ± 1.1
275.51 K, w2 = 0.0051 | 225.17 ± 1.1
275.62 K, w2 = 0.0169 | 235.94 ± 1.1
276.24 K, w2 = 0.0495 | 247.28 ± 1.2
277.2 K, w2 = 0.00482 | 225.01 ± 1.1
278.11 K, w2 = 0.0051 | 227.74 ± 1.1
279.23 K, w2 = 0.0169 | 242.23 ± 1.2
279.26 K, w2 = 0.0495 | 254.65 ± 1.2
279.32 K, w2 = 0.00482 | 227.27 ± 1.1
279.78 K, w2 = 0.00482 | 229.54 ± 1.1
280.71 K, w2 = 0.0051 | 230.48 ± 1.1
281.42 K, w2 = 0.00482 | 229.46 ± 1.1
282.24 K, w2 = 0.0495 | 262.55 ± 1.3
283.31 K, w2 = 0.0051 | 233.23 ± 1.1
283.5 K, w2 = 0.00482 | 230.68 ± 1.1
284.39 K, w2 = 0.0169 | 251.43 ± 1.2
285.17 K, w2 = 0.0495 | 271.18 ± 1.3
285.58 K, w2 = 0.00482 | 233.7 ± 1.1
285.91 K, w2 = 0.0051 | 236.24 ± 1.1
287.66 K, w2 = 0.00482 | 235.67 ± 1.1
288.14 K, w2 = 0.0495 | 280.22 ± 1.3
288.51 K, w2 = 0.0051 | 239.25 ± 1.2
289.53 K, w2 = 0.0169 | 262.01 ± 1.3
289.74 K, w2 = 0.00482 | 238.04 ± 1.1
290.97 K, w2 = 0.0495 | 290.4 ± 1.4
291.11 K, w2 = 0.0051 | 242.54 ± 1.2
291.83 K, w2 = 0.00482 | 240.73 ± 1.2
293.7 K, w2 = 0.0051 | 246.11 ± 1.2
293.74 K, w2 = 0.0495 | 300.57 ± 1.4
293.9 K, w2 = 0.00482 | 243.2 ± 1.2
294.65 K, w2 = 0.0169 | 274.42 ± 1.3
295.05 K, w2 = 0.00482 | 246.53 ± 1.2
295.98 K, w2 = 0.00482 | 245.88 ± 1.2
296.3 K, w2 = 0.0051 | 249.8 ± 1.2
296.46 K, w2 = 0.0495 | 310.98 ± 1.4
298.06 K, w2 = 0.00482 | 248.83 ± 1.2
298.89 K, w2 = 0.0051 | 253.84 ± 1.2
299.11 K, w2 = 0.0495 | 321.36 ± 1.5
299.76 K, w2 = 0.0169 | 289.83 ± 1.4
300.14 K, w2 = 0.00482 | 252.27 ± 1.2
301.49 K, w2 = 0.0051 | 258.28 ± 1.2
301.7 K, w2 = 0.0495 | 332.6 ± 1.5
303.76 K, w2 = 0.00482 | 260.04 ± 1.2
304.07 K, w2 = 0.0051 | 263.07 ± 1.2
304.21 K, w2 = 0.0495 | 344.68 ± 1.6
306.66 K, w2 = 0.0051 | 268.79 ± 1.3
306.66 K, w2 = 0.0495 | 358.21 ± 1.6
309.04 K, w2 = 0.0495 | 371.9 ± 1.7
309.23 K, w2 = 0.0051 | 274.95 ± 1.3
311.81 K, w2 = 0.0051 | 281.91 ± 1.3
314.38 K, w2 = 0.0051 | 289.81 ± 1.4

101 kPa, Liquid
Conditions | molar heat capacity at constant pressure [J/K/mol]
258.42 K, w2 = 0.0495 | 201.89 ± 1
260.51 K, w2 = 0.0495 | 202.44 ± 1
262.59 K, w2 = 0.0495 | 203.15 ± 1
264.68 K, w2 = 0.0495 | 203.66 ± 1
266.76 K, w2 = 0.0495 | 204.28 ± 1
268.85 K, w2 = 0.0495 | 204.83 ± 1
271.36 K, w2 = 0.0495 | 205.69 ± 1
274.29 K, w2 = 0.0495 | 206.48 ± 1
277.23 K, w2 = 0.0495 | 207.26 ± 1
280.16 K, w2 = 0.0495 | 208.13 ± 1
283.1 K, w2 = 0.0495 | 209.06 ± 1
286.03 K, w2 = 0.0495 | 209.95 ± 1
288.97 K, w2 = 0.0495 | 210.91 ± 1
291.91 K, w2 = 0.0495 | 211.72 ± 1
294.84 K, w2 = 0.0495 | 212.72 ± 1
297.78 K, w2 = 0.0495 | 213.47 ± 1.1
300.72 K, w2 = 0.0495 | 214.41 ± 1.1
303.65 K, w2 = 0.0495 | 215.41 ± 1.1
306.59 K, w2 = 0.0495 | 216.44 ± 1.1
309.53 K, w2 = 0.0495 | 217.39 ± 1.1
312.47 K, w2 = 0.0495 | 218.35 ± 1.1
315.41 K, w2 = 0.0495 | 219.31 ± 1.1
321.27 K, w2 = 0.0495 | 221.21 ± 1.1
330.56 K, w2 = 0.0495 | 224.12 ± 1.1
333.86 K, w2 = 0.0495 | 225.96 ± 1.1
337.13 K, w2 = 0.0495 | 227.18 ± 1.1
340.39 K, w2 = 0.0495 | 228.38 ± 1.1
343.64 K, w2 = 0.0495 | 229.51 ± 1.1
346.87 K, w2 = 0.0495 | 230.63 ± 1.1
350.08 K, w2 = 0.0495 | 232.05 ± 1.1
352.35 K, w2 = 0.0169 | 289.81 ± 1.4
353.26 K, w2 = 0.0495 | 232.65 ± 1.1
355.87 K, w2 = 0.0051 | 320.97 ± 1.5
356.41 K, w2 = 0.0495 | 233.93 ± 1.1
357.85 K, w2 = 0.00482 | 320.3 ± 1.5
358.14 K, w2 = 0.0169 | 293.37 ± 1.4
358.58 K, w2 = 0.0051 | 322.63 ± 1.5
361.53 K, w2 = 0.0495 | 236.39 ± 1.1
363.43 K, w2 = 0.0169 | 295.6 ± 1.4
364.71 K, w2 = 0.0495 | 237.6 ± 1.2
367.1 K, w2 = 0.00482 | 323.63 ± 1.5
367.89 K, w2 = 0.0495 | 238.53 ± 1.2

Reference: the NIST ThermoML archive (doi:10.1016/j.jct.2006.05.008)
